The values below come from patent publication US20170042104A1, “SUGARCANE PROCESS” (E I DU PONT DE NEMOURS AND COMPANY, priority 2014, published 2017).

Data set [1] relates to regenerable plant tissue (RPT). In words: Culturing of regenerable plant tissue in media with BAP. It is filed as cell-based, sugarcane. Particulars: BAP present in the culture. An excerpt:
General procedures have been previously outlined (International Publication No. WO 2013/096531, incorporated by reference herein). In summary, half-explants were trimmed of excess stalk tissue, leaving behind the proliferating buds areas. Trimmed tissue was placed into a temporary immersion chamber for liquid culture, or back onto solid media. In the case of temporary immersion, the chamber was placed in a growth chamber, or room, with 30 uE/m2/sec of PAR light, and was hooked to tubing connected to pumps to allow standard immersion cycling. Media (MS+3% sucrose+[…]+3 mg/L paclobutrazol) was changed weekly. Harvest occurred 2-20 weeks after initiation, depending on whether the tissue is grown on solid or liquid media, and the overall mass of the regenerable plant tissue (RPT).
The RPT was subdivided into additional growth chambers or plates as needed. Multiple rounds of growth cycles were possible.

In the next data set the test system is sugarcane. Briefly: Plantlet formation with Na silicate added to MS media; field test. Format: in vivo. The note with it: 5 mM added to MS media in weeks 3 and 4; observational evidence. The protocol: Plantlet formation (production of plants with shoots and roots), also called regeneration, was initiated by transferring the RPT to media without hormones. RPT fragments were made using scalpels, chopping tools, or by large scale dicing of material by mechanical means. Fragment size was determined by end usage: RPT fragments for growth in arrays were approximately 1-10 mm cubes, for growth in temporary immersion chambers somewhat larger fragments 5-20 mm were used, or the RPT was left unfragmented. The media used was MS+3% sucrose. Plantlet formation occurred at 26° C. in 60 uE/m2/sec of PAR light (16 hours on and 8 hours off), and if temporary immersion was used media was cycled over the fragments for 1 minute every 2 hours. Media was replaced weekly and was supplemented with 100 ppm carbenicillin, 0.2% PPM (Plant Preservative Mixture™, Plant Cell Technology Inc. Washington, D.C.), and/or 100 ppm cefotaxime as needed. Supplemental carbon dioxide (1500 ppm) was used in some growth cycles, but is not essential. After 3-4 weeks the MS concentration was decreased to ½ strength to encourage rooting, although not required.
The addition of 5 mM Na silicate to the MS media was made in weeks 3 and 4. […] Silicates accumulated in sugarcane tissues conferring anti-predatory, anti-fungal properties. […]

The test system of another data set is sugarcane plantlet. In words: Storage of plantlets in Starcla tube seed structures after chemical treatment during regeneration; field survival. The note with it: for Survival: survival after 5 weeks of growth in field. It is filed as in vivo. From the text:
The effect of time, temperature, and light on storage of plantlets was studied, in combination with the effect of chemical treatment. Seed structures consisted of 4″ Starcla™ tubes. Tubes were extruded from a resin, such as a blend of polybutylene succinate, polylactic acid, and starch, using a 1½″ Davis Standard-extruder. Tubing was made with ⅝″ I.D. and cut into 4″ length tubes. The seeds were assembled by heating the bottom of the tube and pressing into a crescent shape where there is 2-3 millimeter gap between both sides. Two grams of potting media were added to each tube. One sugarcane plantlet was placed inside the tube structure ensuring the roots were placed in the soil and the shoot remained in the airspace. Two milliliters of water were added to the structure and then the top was prepared by heating and forming a crescent shape with a 2-3 millimeter gap between both sides.
Two types of chemical treatments were used during regeneration. The first treatment was paclobutrazol (paclo), which was introduced into the media for weeks 3 and 4 of plantlet formation. The solution contained 2% sucrose, ½ strength MS, 100 ppm cefotaxime, and 0.75 mg/L paclobutrazol. The second treatment was abscisic acid (ABA) which was introduced the day before the plantlets were removed from regeneration. The ABA treatment solution contained 1 mg/L ABA, 10 g/L sucrose, and MS solution.
The tubes were stored in partially closed zip bags with 25 tubes per unit. After storage the seeds were planted. No irrigation was used during the time the plantlets were growing in the field. The survival rates of the plantlets were measured after 5 weeks of growth.

A short description of data set [2]: Accelerated degradation of cellulosic composites buried in soil. It is filed as physicochemical. Particulars: buried in soil 1 month, 30° C., approximately 50% humidity; confidence interval 95%. As for the experimental part: Cellulosic pulp was mixed with various materials to study the influence of the materials in the degradation of them in soil. To evaluate the different materials developed with cellulose, an accelerated degradation protocol was developed wherein samples with different compositions were buried in a recipient containing soil, and kept for 1 month in an incubator at 30° C. and approximately 50% humidity, representing field conditions. The cellulose content was measured using thermogravimetric analyses before and after the test to evaluate degradation, indicating cellulose degradation in field.
Different materials were tested, including a residue from the pulp and paper industry containing cellulosic fibers of long and short nature; inorganic fillers, mainly TiO2 and pigments. The final structure contained more than 90% of this cellulose mixture. To this mixture was added polyvinyl alcohol, up to 5% in weight, ionomer of ethylene acid copolymer, up to 5% in weight, used in the packaging industry, cationic starch, up to 5% in weight, more likely 1% to accelerate degradation, while promoting the adherence of the adjacent fibers of cellulose, urea to accelerate the degradation and nutrition of plants up to 10% in weight, more likely 5%, and AKD (alkyl ketene dimer) in a starch solution to serve as moisture barrier by changing the hydrophobicity of cellulose, more likely between 1-10 ppm.

Setting [3] is: Conditions N, O: 0 weeks, not stored.

In the case of `c1ccc(CNc2ncnc3nc[nH]c23)cc1` [BAP, 6-Benzylaminopurine], the Root formation result in data set [1] is given as “No root formation is detected”.
On to Na silicate, for which the “Growth rate and root production in a field test” value in the data set with sugarcane is “improves growth rate and root production”.
For `CC1=CC(=O)CC(C)(C)[C@@]1(O)/C=C/C(C)=C\C(=O)O` [ABA, abscisic acid], the Survival with sugarcane plantlet (Condition C: storage 8 weeks, temperature 10, light 5) was determined as 0%; in the data set on sugarcane plantlet (Condition D: storage 8 weeks, temperature 30, light 0) it was 0%; with sugarcane plantlet (Condition G: storage 4 weeks, temperature 10, light 0) it was 0%; in the data set on sugarcane plantlet (Condition H: storage 4 weeks, temperature 30, light 200), 50%; in the data set on sugarcane plantlet (Condition L: storage 2 weeks, temperature 10, light 5), 0%; with sugarcane plantlet (Condition M: storage 2 weeks, temperature 30, light 0), 0%. Further, in the data set with sugarcane plantlet (setting [3]), the Survival is on record as 12%.
As for `CC(C)(C)[C@@H](O)[C@@H](Cc1ccc(Cl)cc1)n1cncn1` (racemic) [Paclo, paclobutrazol], the Survival is recorded as 0% with sugarcane plantlet (Condition A: storage 8 weeks, temperature 10, light 0); 88% in the data set with sugarcane plantlet (Condition B: storage 8 weeks, temperature 30, light 200); 0% in the data set on sugarcane plantlet (Condition E: storage 4 weeks, temperature 10, light 5); 0% with sugarcane plantlet (Condition F: storage 4 weeks, temperature 30, light 0); 0% in the data set with sugarcane plantlet (Condition J: storage 2 weeks, temperature 10, light 0); 64% in the data set on sugarcane plantlet (Condition K: storage 2 weeks, temperature 30, light 200). The Survival in the data set with sugarcane plantlet (setting [3]) came out at 16%. The “Survival rate compared between treatments” value in the data set with sugarcane plantlet (storage experiment of Table 3 overall) is “higher survival rate than the ABA treatment”.
For the compound `NC(N)=O` [urea], the “Influence on the degradation of cellulosic compounds” value in data set [2] is “high influence”.
